Experimental data: patent publication US20240083903A1, “ARYL ETHER COMPOUNDS AS TEAD MODULATORS” (Merck Sharp& Dohme LLC, priority 2021, published 2024)

System: TEAD Reporter-MCF7 cell line
Experiment: YAP/TEAD cellular activity assay: inhibition of TEAD-Luc activity in TEAD Reporter-MCF7 cell line
Type: cell-based, human
Conditions: Homo sapiens, TEAD Reporter-MCF7 cells, 24 hours incubation with compound, luciferase readout
Method: YAP/TEAD Cellular Activity Assay
Quantitation of Compound Potency on the Inhibition of TEAD-Luc Activity in TEAD Reporter-MCF7 Cell Line.
The TEAD Reporter-MCF7 cell line containing the firefly luciferase gene under the control of TEAD responsive elements stably integrated into the human breast cancer cell line was purchased from BPS Bioscience (Cat #60618). The cells were cultured with complete culture medium ([…], 1 mM sodium pyruvate, 10% fetal bovine serum, 10 ng/mL insulin and 400 ug/mL G418 sulfate) prior to the assay. For the assay, the cells were harvested, resuspended in the complete culture medium without G418, and seeded into white solid bottom 384-well cell culture microplates in 25 uL with 10,000 cells per well. The plates were incubated at 37° C. in a CO2 incubator for 20-24 hours and the compounds were then transferred from Echo LDV plates directly into the 384-well white tissue culture plates with an Echo. The plates were incubated at 37° C. in a CO2 incubator for 24 hours and equal volume of ONE-Glo™ EX Luciferase reagent (Promega, Cat #E8150) was added. After mixing on a shaker at room temperature for 10 minutes, the luciferase activity was measured with an Envision. The percentage inhibition and EC50 values of compounds were calculated with Spotfire.
Required Materials • 1. TEAD reporter-MCF-7 Cells (BPS Bioscience, #60618) • 2. Complete Cell Culture Medium (without selection antibiotics) • EMEM 89% (ATCC, #30-2003) • FBS 10% (Hyclone, #SH30088.03) • 1% Non essential amino acids (Gibco, • 1 mM sodium pyruvate (Gibco, • Pen/Strep, 1% (Gibco, #15140-122) • 10 ng/mL insulin (Sigma, #10516) • 3. Complete Cell Culture Medium (with selection antibiotics) • EMEM 89% (ATCC, #30-2003) • F1% Non essential amino acids (Gibco, • 1 mM sodium pyruvate (Gibco, • BS 10% (Hyclone, #SH30088.03) • 10 ng/mL insulin (Sigma, #10516) • 400 ug/mL G418 sulfate (Agilent, #200049-21) • 4. Miscellaneous tissue culture equipment and reagents. • 5. White solid 384-well tissue culture plate (Greiner, Cat #781080) • 6. One Glo EX luciferase assay system (Promega, #E8150)
The following table tabulates the biological data disclosed for the current invention. The biological data was collected using the methodology described above. For each compound, TEAD-Luc EC50 values are listed in nanomolar (nM) concentration units.

Row | Compound | EC50 (MCF7, 24 h) [nM] | EC50 [nM]
1 | CNS(=O)(=O)c1ccc(Oc2ccc(CC(F)(F)F)cc2)c(-c2cnn3c2CCC3)c1 [3-6, 3-(5,6-dihydro-4H-pyrrolo[1,2-b]pyrazol-3-yl)-N-methyl-4-[4-(2,2,2-trifluoroethyl)phenoxy]benzene-1-sulfonamide] | 508 | 
2 | CCNS(=O)(=O)c1ccc(Oc2ccc(C(F)(F)F)cc2)c(-c2cn3c(n2)CCC3)c1 [7-2, 3-(6,7-dihydro-5H-pyrrolo[1,2-a]imidazol-2-yl)-N-ethyl-4-[4-(trifluoromethyl)phenoxy]benzene-1-sulfonamide] | 35.2 | 
3 | CNS(=O)(=O)c1ccc(Oc2ccc(C(F)(F)F)cc2)c(-c2nc3ccccc3s2)c1 [1-28, 3-(1,3-benzothiazol-2-yl)-N-methyl-4-[4-(trifluoromethyl)phenoxy]benzene-1-sulfonamide] | 66.6 | 
4 | CNS(=O)(=O)c1ccc(Oc2ccc(C(F)(F)F)cc2)c(-c2cn3ccc(C(=O)OC)cc3n2)c1 [1-30, methyl 2-{5-(methylsulfamoyl)-2-[4-(trifluoromethyl)phenoxy]phenyl} imidazo[1,2-a]pyridine-7-carboxylate] | 7800 | 
5 | CNS(=O)(=O)c1ccc(Oc2ccc(C(F)(F)F)cc2)c(-c2ccc3c(c2)OCC(=O)N3)c1 [2-28, N-methyl-3-(3-oxo-3,4-dihydro-2H-1,4-benzoxazin-7-yl)-4-[4-(trifluoromethyl)phenoxy]benzene-1-sulfonamide] | 5230 | 
6 | CNS(=O)(=O)c1ccc(Oc2ccc(C(F)(F)F)cc2)c(-c2cccc3nc(N)[nH]c23)c1 [2-13, 3-(2-amino-1H-benzimidazol-7-yl)-N-methyl-4-[4-(trifluoromethyl)phenoxy]benzene-1-sulfonamide] | 3650 | 
7 | CNS(=O)(=O)c1ccc(Oc2ccc(C(F)(F)F)cc2)c(-c2nc3ccccc3o2)c1 [1-29, 3-(1,3-benzoxazol-2-yl)-N-methyl-4-[4-(trifluoromethyl)phenoxy]benzene-1-sulfonamide] | 861 | 
8 | CNS(=O)(=O)c1cnc(Oc2ccc(C(F)(F)F)cc2)c(-c2cn3c(n2)CCC3)c1 [11-1, 5-(6,7-dihydro-5H-pyrrolo[1,2-a]imidazol-2-yl)-N-methyl-6-[4-(trifluoromethyl)phenoxy]pyridine-3-sulfonamide] | 8.7 | 
9 | CNS(=O)(=O)c1ccc(Oc2ccc(C(F)(F)F)cc2)c(-c2ccc3c(c2)C(=O)N(CC2CC2)C3)c1 [2-11, 3-[2-(cyclopropylmethyl)-3-oxo-2,3-dihydro-1H-isoindol-5-yl]-N-methyl-4-[4-(trifluoromethyl)phenoxy]benzene-1-sulfonamide] | 338 | 
10 | CNS(=O)(=O)c1ccc(Oc2ccc(C(F)(F)F)cc2)c(-c2ccnc3[nH]ccc23)c1 [2-9, N-methyl-3-(1H-pyrrolo[2,3-b]pyridin-4-yl)-4-[4-(trifluoromethyl)phenoxy]benzene-1-sulfonamide] | 2180 | 
11 | CNS(=O)(=O)c1ccc(Oc2ccc(C(F)(F)F)cc2)c(-c2ccc3nccnc3c2)c1 [2-27, N-methyl-3-(quinoxalin-6-yl)-4-[4-(trifluoromethyl)phenoxy]benzene-1-sulfonamide] | 410 | 
12 | CNS(=O)(=O)c1ccc(Oc2cccc(C(F)(F)F)c2)c(-c2cnn3c2OCC3)c1 [1-49, 3-(2,3-dihydropyrazolo[5,1-b]oxazol-7-yl)-N-methyl-4-(3-(trifluoromethyl)phenoxy)benzenesulfonamide] | 315 | 
13 | CNS(=O)(=O)c1ccc(Oc2ccc(C(F)(F)F)cc2)c(-c2cnc3ccc(Cl)nn23)c1 [1-23, 3-(6-chloroimidazo[1,2-b]pyridazin-3-yl)-N-methyl-4-[4-(trifluoromethyl)phenoxy]benzene-1-sulfonamide] | 3340 | 
14 | CNS(=O)(=O)c1ccc(Oc2ccc(C(F)(F)F)cc2)c(-c2cc3ccccn3n2)c1 [1-35, N-methyl-3-(pyrazolo[1,5-a]pyridin-2-y1)-4-[4-(trifluoromethyl)phenoxy]benzene-1-sulfonamide] | 99.4 | 
15 | CNS(=O)(=O)c1ccc(Oc2ccc(C(F)(F)F)cc2)c(-c2cc3ccc(C)nc3cc2OC)c1 [2-21, 3-(7-methoxy-2-methylquinolin-6-yl)-N-methyl-4-[4-(trifluoromethyl)phenoxy]benzene-1-sulfonamide] | 9780 | 
16 | CNS(=O)(=O)c1ccc(Oc2ccc(C(C)=O)cc2)c(-c2cn3c(n2)CCC3)c1 [1-50, 4-(4-acetylphenoxy)-3-(6,7-dihydro-5H-pyrrolo[1,2-a]imidazol-2-yl)-N-methylbenzene-1-sulfonamide] | 416 | 
17 | O=S(=O)(NCC1CC1)c1ccc(Oc2ccc(C(F)(F)F)cc2)c(-c2cnn3c2CCC3)c1 [5-1, N-(Cyclopropylmethyl)-3-(5,6-dihydro-4H-pyrrolo[1,2-b]pyrazol-3-yl)-4-(4-(trifluoromethyl)phenoxy)benzenesulfonamide] | 4410 | 
18 | CNS(=O)(=O)c1ccc(Oc2ccc(C(F)(F)F)cc2)c(-c2ccc3c(c2)OCO3)c1 [2-14, 3-(2H-1,3-benzodioxol-5-yl)-N-methyl-4-[4-(trifluoromethyl)phenoxy]benzene-1-sulfonamide] | 247 | 
19 | CNS(=O)(=O)c1ccc(Oc2ccc(C(F)(F)F)cc2)c(-c2nc3cc(OC)ccc3[nH]2)c1 [1-12, 3-(5-methoxy-1H-benzimidazol-2-yl)-N-methy1-4-[4-(trifluoromethyl)phenoxy]benzene-1-sulfonamide] | 5440 | 
20 | CNS(=O)(=O)c1ccc(Oc2ccc(C(F)(F)F)cc2)c(-c2nc(C)n3c2COCC3)c1 [1-22, N-methyl-3-(3-methyl-5,6-dihydro-8H-imidazo[5,1-c][1,4]oxazin-1-yl)-4-[4-(trifluoromethyl)phenoxy]benzene-1-sulfonamide] | 1820 | 
21 | CNS(=O)(=O)c1ccc(Oc2ccc(C(F)(F)F)cc2)c(-c2ccc3nc(C)ccc3c2)c1 [2-31, N-methyl-3-(2-methylquinolin-6-yl)-4-[4-(trifluoromethyl)phenoxy]benzene-1-sulfonamide] | 663 | 
22 | CNS(=O)(=O)c1ccc(Oc2ccc(Cl)cc2)c(-c2cc3n(n2)CCC3)c1 [8-1, 4-(4-Chlorophenoxy)-3-(5,6-dihydro-4H-pyrrolo[1,2-b]pyrazol-2-yl)-N-methylbenzene-1-sulfonamide] |  | 10.4
23 | CNS(=O)(=O)c1ccc(Oc2ccc(C(F)(F)F)cc2)c(-c2cc3c(s2)CCNC3)c1 [1-16, N-methyl-3-(4,5,6,7-tetrahydrothieno[3,2-c]pyridin-2-yl)-4-[4-(trifluoromethyl)phenoxy]benzene-1-sulfonamide] | 4020 | 
24 | CNS(=O)(=O)c1ccc(Oc2ccc(C(F)(F)F)cc2)c(-c2ccc3ncn(C4CC4)c3c2)c1 [2-12, 3-(1-cyclopropyl-1H-benzimidazol-6-yl)-N-methyl-4-[4-(trifluoromethyl)phenoxy]benzene-1-sulfonamide] | 2860 | 
25 | CNS(=O)(=O)c1ccc(Oc2ccc(C(F)(F)F)cc2)c(-c2ncn3c2CCCC3)c1 [1-37, N-methyl-3-(5,6,7,8-tetrahydroimidazo[1,5-a]pyridin-1-yl)-4-[4-(trifluoromethyl)phenoxy]benzene-1-sulfonamide] | 414 | 
26 | CNS(=O)(=O)c1ccc(Oc2ccc(C(F)(F)F)cc2)c(-c2ccc3c(c2)n(C)c(=O)n3C)c1 [2-8, 3-(1,3-dimethyl-2-oxo-2,3-dihydro-1H-benzimidazol-5-yl)-N-methyl-4-[4-(trifluoromethyl)phenoxy]benzene-1-sulfonamide] | 198 | 
27 | CNS(=O)(=O)c1ccc(Oc2ccc(C(F)(F)F)cc2)c(-c2cn3ccc(C)cc3n2)c1 [1-31, N-methyl-3-(7-methylimidazo[1,2-a]pyridin-2-yl)-4-[4-(trifluoromethyl)phenoxy]benzene-1-sulfonamide] | 40.6 | 
28 | CNS(=O)(=O)c1ccc(Oc2ccc(S(F)(F)(F)(F)F)cc2)c(-c2cn3c(n2)CCC3)c1 [4-18, 3-(6,7-dihydro-5H-pyrrolo[1,2-a]imidazol-2-yl)-N-methyl-4-[4-(pentafluoro-lambda~6~-sulfanyl)phenoxy]benzene-1-sulfonamide] | 15.2 | 
29 | CNS(=O)(=O)c1ccc(O[C@H]2CC[C@H](C(F)(F)F)CC2)c(-c2cn3c(n2)CCC3)c1 [4-1, 3-(6,7-Dihydro-5H-pyrrolo[1,2-a]imidazol-2-yl)-N-methyl-4-(((1r,4r)-4-(trifluoromethyl)cyclohexyl)oxy)benzenesulfonamide] | 52.6 | 
30 | CNc1ncc2cc(-c3cc(S(=O)(=O)NC)ccc3Oc3ccc(C(F)(F)F)cc3)ccc2n1 [2-25, N-methyl-3-[2-(methylamino)quinazolin-6-yl]-4-[4-(trifluoromethyl)phenoxy]benzene-1-sulfonamide] | 232 | 
